{
  "source": "paper PMC9886266",
  "about": "“New [1,2,4]triazolo[4,3-c]quinazolines as intercalative Topo II inhibitors: Design, synthesis, biological evaluation, and in silico studies” (PLOS ONE, 2023)",
  "key": {"[1]": {"tested_on": "BAX", "assay": "Western blot, BAX level", "assay_type": "cell-based, human", "conditions": "HCT-116, 2.44 μM, 48 h; control = 1.00", "description": "In comparison to the control, compound 16 elevated the level of the proapoptotic protein (BAX) by 2.18 times. […] Furthermore, compound 16 enhanced the BAX/Bcl-2 ratio by 4.38-fold in comparison to control cells.\nThe effects of compound 16 on the expression of BAX, and Bcl‐2 were determined using Western blot analysis [62–64]as described in Electronic Supplementary Material S2.7 in S1 Appendix. […]\nfor 48 h. Then, the cells were fixed in 70% ethanol at 4 °C for 12 h. After that, the cells were washed with cold PBS, incubated with 100 μl RNase A at 37 °C for 30 min, and stained with 400 μl PI in the dark at room temperature for further 30 min. The stained cells were measured using Epics XL-MCL™ Flow Cytometer (Beckman Coulter), and the data were analyzed using Flowing software (version 2.5.1, Turku Centre for Biotechnology, Turku, Finland).\nS2.6. Flow cytometry analysis for apoptosis\nFlow cytometry cell apoptosis analysis was used to investigate the apoptotic effect of the synthesized compounds. […] The stained cells were measured using Epics XL-MCL™ Flow Cytometer and analyzed using Flowing software. […]\nThe proteins expression of BAX, and Bcl‐2 were determined using Western blot analysis. […] Total protein concentrations in the supernatant were determined colorimetrically using the Pierce 660 nm Protein Assay method (Thermo Fisher Scientific, Rockford, IL), with BSA as the standard. […]"}, "[2]": {"tested_on": "HCT-116 cells", "assay": "Flow cytometry cell cycle analysis (propidium iodide)", "assay_type": "cell-based, human", "conditions": "HCT-116, 2.44 μM, 48 h, mean ± SEM"}},
  "data": [
    {"smiles": "CCCNc1nc2ccccc2c2nnc(C(F)(F)F)n12", "note": "[Compound 16, N-Propyl-3-(trifluoromethyl)-[1,2,4]triazolo[4,3-c]quinazolin-5-amine]", "values": [
      {"measurement": "Protein expression (normalized to β-actin) BAX", "setting": "[1]", "result": "2.18 ± 0.12"},
      {"measurement": "Cell cycle distribution % G2/M", "setting": "[2]", "result": "36.89 ± 1.81", "unit": "%"},
      {"measurement": "Cell cycle distribution %G1", "setting": "[2]", "result": "19.05 ± 1.38", "unit": "%"},
      {"measurement": "Cell cycle distribution %S", "setting": "[2]", "result": "42.76 ± 2.48", "unit": "%"},
      {"measurement": "Cell cycle distribution %Sub-G1", "setting": "[2]", "result": "1.30 ± 0.18", "unit": "%"}
    ]}
  ]
}
